Experiments:
Format in all cases: functional
Staphylococcus aureus [1] = test: Antibacterial activity against penicillin-resistant Staphylococcus aureus ATCC31007 assessed as bacterial growth inhibition incubated for 20 hrs by CLSI based broth microdilution method
Escherichia coli [2] = test: Antibacterial activity against penicillin-susceptible Escherichia coli ATCC25922 assessed as bacterial growth inhibition incubated for 20 hrs by CLSI based broth microdilution method
Acinetobacter baumannii = test: Antibacterial activity against Acinetobacter baumannii ATCC19606 assessed as bacterial growth inhibition incubated for 20 hrs by CLSI based broth microdilution method
Enterococcus faecalis [3] = test: Antibacterial activity against vancomycin-resistant Enterococcus faecalis ATCC51299 assessed as bacterial growth inhibition incubated for 20 hrs by CLSI based broth microdilution method
Staphylococcus aureus [4] = test: Antibacterial activity against erythromycin-susceptible Staphylococcus aureus ATCC25923 assessed as bacterial growth inhibition incubated for 20 hrs by CLSI based broth microdilution method
Klebsiella pneumoniae = test: Antibacterial activity against Klebsiella pneumoniae ATCC BAA-1902 assessed as bacterial growth inhibition incubated for 20 hrs by CLSI based broth microdilution method
Bacillus pumilus = test: Antibacterial activity against penicillin-susceptible Bacillus pumilus CMCC63202 assessed as bacterial growth inhibition incubated for 20 hrs by CLSI based broth microdilution method
Streptococcus pyogenes [5] = test: Antibacterial activity against erythromycin-resistant Streptococcus pyogenes 2 clinical isolate assessed as bacterial growth inhibition incubated for 20 hrs by CLSI based broth microdilution method
[6] = system: Staphylococcus epidermidis; test: Antibacterial activity against penicillin-resistant Staphylococcus epidermidis clinical isolate assessed as bacterial growth inhibition incubated for 20 hrs by CLSI based broth microdilution method
Streptococcus pyogenes [7] = test: Antibacterial activity against erythromycin-susceptible Streptococcus pyogenes 1 assessed as bacterial growth inhibition incubated for 20 hrs by CLSI based broth microdilution method
Enterococcus faecalis [8] = test: Antibacterial activity against vancomycin-susceptible Enterococcus faecalis ATCC29212 assessed as bacterial growth inhibition incubated for 20 hrs by CLSI based broth microdilution method
Enterococcus faecium [9] = test: Antibacterial activity against vancomycin-resistant Enterococcus faecium ATCC51559 assessed as bacterial growth inhibition incubated for 20 hrs by CLSI based broth microdilution method
Bacillus subtilis = test: Antibacterial activity against penicillin-susceptible Bacillus subtilis ATCC9372 assessed as bacterial growth inhibition incubated for 20 hrs by CLSI based broth microdilution method
Staphylococcus aureus [10] = test: Antibacterial activity against Staphylococcus aureus clinical isolate assessed as bacterial growth inhibition incubated for 20 hrs by CLSI based broth microdilution method
Escherichia coli [11] = test: Antibacterial activity against wild-type Escherichia coli BW25113 assessed as bacterial growth inhibition incubated for 20 hrs by CLSI based broth microdilution method
Enterococcus faecium [12] = test: Antibacterial activity against vancomycin-susceptible Enterococcus faecium ATCC19434 assessed as bacterial growth inhibition incubated for 20 hrs by CLSI based broth microdilution method
Staphylococcus aureus [13] = test: Antibacterial activity against methicillin-resistant Staphylococcus aureus ATCC43300 assessed as bacterial growth inhibition incubated for 20 hrs by CLSI based broth microdilution method

| Compound | MIC (Staphylococcus aureus [1]) | MIC (Escherichia coli [2]) | MIC (Acinetobacter baumannii) | MIC (Enterococcus faecalis [3]) | MIC (Staphylococcus aureus [4]) | MIC (Klebsiella pneumoniae) | MIC (Bacillus pumilus) | MIC (Streptococcus pyogenes [5]) | MIC [6] | MIC (Streptococcus pyogenes [7]) | MIC (Enterococcus faecalis [8]) | MIC (Enterococcus faecium [9]) | MIC (Bacillus subtilis) | MIC (Staphylococcus aureus [10]) | MIC (Escherichia coli [11]) | MIC (Enterococcus faecium [12]) | MIC (Staphylococcus aureus [13]) |
| --- | --- | --- | --- | --- | --- | --- | --- | --- | --- | --- | --- | --- | --- | --- | --- | --- | --- |
| CCOc1ccc(/C=C/c2cc(-c3ccccc3)c[n+](C)c2-c2ccccc2)cc1.[I-] | 16 mg/L | > 64 mg/L | 16 mg/L | 32 mg/L | 2 mg/L | > 64 mg/L | 16 mg/L | 8 mg/L | 16 mg/L | 4 mg/L | 16 mg/L | 16 mg/L | 4 mg/L | 2 mg/L | > 64 mg/L | 32 mg/L | 8 mg/L |
| C[n+]1cc(-c2ccccc2)cc(/C=C/c2ccc(C#N)cc2)c1-c1ccccc1.[I-] | > 64 mg/L | > 64 mg/L | 64 mg/L | > 64 mg/L | 8 mg/L | > 64 mg/L | > 64 mg/L | 32 mg/L | > 64 mg/L | 32 mg/L | > 64 mg/L | > 64 mg/L | 32 mg/L | 32 mg/L | > 64 mg/L | > 64 mg/L | 64 mg/L |
| COc1cc(/C=C/c2cc(-c3ccccc3)c[n+](C)c2-c2ccccc2)cc(OC)c1OC.[I-] | > 64 mg/L | > 64 mg/L | > 64 mg/L | > 64 mg/L | > 64 mg/L | > 64 mg/L | 64 mg/L | 16 mg/L | > 64 mg/L | 16 mg/L | > 64 mg/L | > 64 mg/L | 16 mg/L | 16 mg/L | > 64 mg/L | > 64 mg/L | 64 mg/L |
| CCCCCCOc1ccc(/C=C/c2cc(-c3ccccc3)[n+](C)cc2-c2ccccc2)cc1.[I-] | 2 mg/L | 4 mg/L | 4 mg/L | 2 mg/L | 0.5 mg/L | 8 mg/L | 0.5 mg/L | 2 mg/L | 2 mg/L | 2 mg/L | 2 mg/L | 1 mg/L | 0.5 mg/L | 0.5 mg/L | 4 mg/L | 2 mg/L | 2 mg/L |
| CCCCCCOc1ccc(/C=C/c2cc(-c3ccccc3)c[n+](C)c2-c2ccccc2)cc1.[I-] | 2 mg/L | 8 mg/L | 2 mg/L | 1 mg/L | 0.25 mg/L | > 64 mg/L | 0.5 mg/L | 2 mg/L | 2 mg/L | 2 mg/L | 2 mg/L | 2 mg/L | 2 mg/L | 1 mg/L | 4 mg/L | 2 mg/L | 1 mg/L |
| CCCCCOc1ccc(/C=C/c2cc(-c3ccccc3)c[n+](C)c2-c2ccccc2)cc1.[I-] | 1 mg/L | 4 mg/L | 2 mg/L | 2 mg/L | 0.25 mg/L | 8 mg/L | 1 mg/L | 2 mg/L | 1 mg/L | 2 mg/L | 2 mg/L | 2 mg/L | 0.5 mg/L | 1 mg/L | 4 mg/L | 2 mg/L | 1 mg/L |
| C[n+]1cc(-c2ccccc2)c(/C=C/c2ccc(F)cc2)cc1-c1ccc(C(C)(C)C)cc1.[I-] | 1 mg/L | 8 mg/L | 4 mg/L | 2 mg/L | 1 mg/L | 8 mg/L | 1 mg/L | 4 mg/L | 2 mg/L | 2 mg/L | 2 mg/L | 2 mg/L | 1 mg/L | 1 mg/L | 8 mg/L | 2 mg/L | 1 mg/L |
| C[n+]1cc(-c2ccccc2)c(/C=C/c2ccc(O)cc2)cc1-c1ccc(C(C)(C)C)cc1.[I-] | 4 mg/L | 64 mg/L | 8 mg/L | 4 mg/L | 0.125 mg/L | > 64 mg/L | 4 mg/L | 2 mg/L | 4 mg/L | 2 mg/L | 4 mg/L | 4 mg/L | 1 mg/L | 0.5 mg/L | 64 mg/L | 4 mg/L | 1 mg/L |

Reference: ChEMBL document CHEMBL5537115, “New broad-spectrum and potent antibacterial agents with dual-targeting mechanism: Promoting FtsZ polymerization and disrupting bacterial membranes” (Eur J Med Chem, 2024)
